In patent publication US20240114949A1, “AEROSOLIZABLE MATERIAL” (Nicoventures Trading Limited, priority 2019, published 2024):

Assay: Solubility of cannabidiol isolate in glycerol/propylene glycol/water solutions
Format: physicochemical
Conditions: Isolate 10 mg/mL

## C=C(C)[C@@H]1CCC(C)=C[C@H]1c1c(O)cc(CCCCC)cc1O [Isolate, cannabidiol]
Glycerol 36, PG 52.09, Water 11 (w/w)
  Soluble: YES
Glycerol 36, PG 53.09, Water 10 (w/w)
  Soluble: YES
glycerol/propylene glycol/water solution, organic solvent or mixture, Glycerol 36, PG 47.09, Water 16 (w/w)
  soluble at 10 mg/mL (yes/no): < 10000 µg/mL
